Molecules are shown by their SMILES.

The record followed here is doi:10.1101/365775v1 (biorxiv, 2018).

This assay concerns the target T1, mSec18 (monomeric Sec18; Sec18His8) (Saccharomyces cerevisiae, UniProt P18759).
T1 sequence (P18759 1-758): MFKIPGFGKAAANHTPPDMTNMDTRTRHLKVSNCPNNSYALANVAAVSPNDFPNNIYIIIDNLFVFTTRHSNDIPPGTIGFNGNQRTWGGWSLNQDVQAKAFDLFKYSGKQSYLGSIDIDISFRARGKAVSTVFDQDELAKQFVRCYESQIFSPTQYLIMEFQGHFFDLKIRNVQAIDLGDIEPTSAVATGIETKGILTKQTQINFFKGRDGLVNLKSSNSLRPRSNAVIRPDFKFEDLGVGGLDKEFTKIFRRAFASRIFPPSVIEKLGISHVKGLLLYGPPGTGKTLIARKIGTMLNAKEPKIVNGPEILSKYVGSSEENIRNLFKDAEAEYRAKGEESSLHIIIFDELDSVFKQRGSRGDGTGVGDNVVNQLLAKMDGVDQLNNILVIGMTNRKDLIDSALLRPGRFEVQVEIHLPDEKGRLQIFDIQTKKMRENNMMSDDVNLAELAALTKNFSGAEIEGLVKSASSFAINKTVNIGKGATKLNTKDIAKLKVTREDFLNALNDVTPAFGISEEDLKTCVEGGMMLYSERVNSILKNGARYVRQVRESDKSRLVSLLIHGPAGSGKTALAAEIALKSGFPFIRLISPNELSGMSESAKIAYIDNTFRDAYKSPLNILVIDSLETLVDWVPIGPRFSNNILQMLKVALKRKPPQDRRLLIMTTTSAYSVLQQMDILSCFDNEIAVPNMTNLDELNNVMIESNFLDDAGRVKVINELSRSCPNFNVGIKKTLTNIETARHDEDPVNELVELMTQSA
Put plainly: microscale thermophoresis. It counts as binding.

`Nc1ncnc2c1ncn2[C@@H]1O[C@H](COP(=O)(O)OP(=O)(O)OP(=O)(O)O)[C@@H](O)[C@H]1O` [ATP] showed a Kd of 56 ± 16 µM.
